Laboratory results as given in patent US20090048112A1, “Novel Herbicides” (SYNGENTA LIMITED, priority 2005, published 2009).

System: Monocotyledonous and dicotyledonous test plants
Experiment: Example B1: herbicidal action prior to emergence (pre-emergence), 500 g/ha
Format: in vivo
Conditions: 13 days after application, 0 = no damage, 100 = plants completely dead; for ALOMY herbicidal effect (visual assessment, percentage scale): Alopecurus myosuroides (slender foxtail); for AMARE herbicidal effect (visual assessment, percentage scale): Amaranthus retroflexus (redroot pigweed); for ECHCG herbicidal effect (visual assessment, percentage scale): Echinochloa crus-galli (barnyard grass); for STEME herbicidal effect (visual assessment, percentage scale): Stellaria media (chickweed)
Experimental: Monocotyledonous and dicotyledonous test plants were sown in seed trays in standard compost. The trays were watered twice daily or as required. The chemicals were applied by track sprayer at the soil surface. The application was carried out with an aqueous suspension of the test substances, prepared as a formulation of 50% acetone in water with 0.5% Tween 20™ (CAS RN 9005-64-5), to achieve a field equivalent of 1000 l/ha. The application rate of the test substances was 500 g/ha. A visual assessment of the herbicidal effect was made at 13 days after application. The following percentage scale was used for assessment: 0, 5, 10, 20, 30, 40, 50, 60, 70, 80, 90, 95, 100 (where 0 is no damage to plants and 100 is plants are completely dead).

SMILES	ALOMY herbicidal effect (visual assessment, percentage scale) [%]	AMARE herbicidal effect (visual assessment, percentage scale) [%]	ECHCG herbicidal effect (visual assessment, percentage scale) [%]	STEME herbicidal effect (visual assessment, percentage scale) [%]
Cn1nc(C(F)(F)F)c(CS(=O)(=O)c2ncc(Br)s2)c1F [Compound No. 1.012]	70	90	95	0
Cn1nc(C(F)(F)F)c(C(Cl)S(=O)(=O)c2ncc(Br)s2)c1OCC(F)(F)F (racemic) [Compound No. 1.039]	60	95	95	0
Cn1nc(C(F)(F)F)c(C(Cl)S(=O)(=O)c2ncc(Cl)s2)c1Cl (racemic) [Compound No. 1.043]	0	80	95	0
Cn1nc(C(F)(F)F)c(CS(=O)(=O)c2nccs2)c1OCC(F)(F)F [Compound 1.049]	30	95	95	10
Cn1nc(C(F)(F)F)c(C(F)S(=O)(=O)c2ncc(Cl)s2)c1Cl (racemic) [Compound No. 1.045]	70	100	100	0
Cn1nc(C(F)(F)F)c(C[S+]([O-])c2nccs2)c1OCC(F)(F)F (racemic) [Compound 1.048]	80	95	95	80
Cn1nc(C(F)(F)F)c(CS(=O)(=O)c2ncc(Cl)s2)c1Cl [Compound No. 1.018]	60	100	95	0
Cn1nc(C(F)(F)F)c(CSc2ncc(Cl)s2)c1F [Compound No. 1.007]	95	80	95	40
Cn1nc(OC(F)F)c(C[S+]([O-])c2ncc(Cl)s2)c1C(F)(F)F (racemic) [Compound 1.054]	95	100	95	30
Cn1nc(C(F)(F)F)c(C(Cl)S(=O)(=O)c2ncc(Cl)s2)c1OCC(F)(F)F (racemic) [Compound No. 1.034]	70	100	95	40
Cn1nc(C(F)(F)F)c(CSc2ncc(Br)s2)c1F [Compound No. 1.010]	60	70	80	0
Cn1nc(C(F)(F)F)c(C(F)(Cl)S(=O)(=O)c2ncc(Cl)s2)c1Cl (racemic) [Compound No. 1.044]	40	95	95	90
Cn1nc(C(F)(F)F)c(C[S+]([O-])c2ncc(Cl)s2)c1F (racemic) [Compound 1.008]	95	100	95	80
Cn1nc(C(F)(F)F)c(C(F)(Cl)S(=O)(=O)c2ncc(Cl)s2)c1OCC(F)(F)F (racemic) [Compound No. 1.035]	0	95	95	20
Cn1nc(C(F)(F)F)c(C[S+]([O-])c2ncc(Br)s2)c1F (racemic) [Compound 1.011]	95	95	95	10
Cn1nc(C(F)(F)F)c(CS(=O)(=O)c2ncc(Cl)s2)c1F [Compound No. 1.009]	0	95	95	0
Cn1nc(C(F)(F)F)c(C(F)(F)S(=O)(=O)c2ncc(Br)s2)c1OCC(F)(F)F [Compound No. 1.042]	60	100	95	90
Cn1nc(C(F)(F)F)c(CS(=O)(=O)c2nc(Br)cs2)c1OCC(F)(F)F [Compound 1.029]	0	95	0	95
Cn1nc(C(F)(F)F)c(C(F)S(=O)(=O)c2ncc(Br)s2)c1Cl (racemic) [Compound No. 1.032]	60	80	80	60
Cn1nc(C(F)(F)F)c(CS(=O)(=O)c2ncc(Cl)s2)c1OCC(F)(F)F [Compound No. 1.015]	90	95	95	80
